Results published in patent US9532519B2, “Plant growth regulator and use thereof” (Japan Science and Technology Agency, priority 2006, dated 2017).

System: Sweet corn
Assay: Effect 3 of oxidized glutathione on productivity of corn (foliar spray)
Format: in vivo
Settings: GSSG sprayed to a stem and leaves four times in two weeks after six weeks from the sowing
Experimental: Sweet corn was cultivated under the same conditions as those of <15.
The amount of fruits and the amount of biomass of ground parts of the plant thus obtained were measured with respect to each plant and harvest index was calculated.

## oxidized glutathione [GSSG]
  amount of fruits, amount of biomass of ground parts and harvest index of each plant: increased the amount of fruits, the amount of biomass of ground parts, and the harvest index
